Reference: ChEMBL document CHEMBL1201862, “PubChem BioAssay data set” (2004)
Calls of active or inactive are those of the source.

Tests used:
[1] = molecular target: T1, Zinc finger protein mex-5 (Caenorhabditis elegans, UniProt Q9XUB2); test: MEX-5/TCR-2 RNA interaction inhibitors, dose response, biochemical, C. elegans, fluorescence polarization (AID 1960)
T1 sequence (Q9XUB2 whole entry): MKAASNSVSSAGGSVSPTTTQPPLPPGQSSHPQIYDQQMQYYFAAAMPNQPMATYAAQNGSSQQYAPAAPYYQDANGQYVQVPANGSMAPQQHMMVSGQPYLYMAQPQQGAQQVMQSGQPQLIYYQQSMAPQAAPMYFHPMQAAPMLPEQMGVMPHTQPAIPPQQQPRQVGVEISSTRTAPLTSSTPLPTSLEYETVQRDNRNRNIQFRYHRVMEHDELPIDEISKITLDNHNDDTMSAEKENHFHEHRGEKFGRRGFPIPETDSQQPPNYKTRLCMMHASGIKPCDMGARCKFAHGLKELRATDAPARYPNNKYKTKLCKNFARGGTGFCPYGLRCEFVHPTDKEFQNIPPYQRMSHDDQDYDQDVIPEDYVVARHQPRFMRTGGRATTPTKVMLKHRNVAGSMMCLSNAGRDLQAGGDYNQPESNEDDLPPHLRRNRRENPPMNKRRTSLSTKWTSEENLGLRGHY

[2] = molecular target: T2, Low molecular weight phosphotyrosine protein phosphatase (Homo sapiens, UniProt P24666); format: functional; settings: read-out: IC50_Mean
[3] = molecular target: T3, RNA-binding protein pos-1 (Caenorhabditis elegans, UniProt G5EF15); test: inhibitors of POS-1/mex-3 RNA binding, dose response, biochemical, fluorescence polarization (AID 1964);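 further: purified POS-1 fused to maltose binding protein made in E. coli; potency of compounds blocking POS-1 binding to fluorescent RNA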
T3 sequence (G5EF15 whole entry): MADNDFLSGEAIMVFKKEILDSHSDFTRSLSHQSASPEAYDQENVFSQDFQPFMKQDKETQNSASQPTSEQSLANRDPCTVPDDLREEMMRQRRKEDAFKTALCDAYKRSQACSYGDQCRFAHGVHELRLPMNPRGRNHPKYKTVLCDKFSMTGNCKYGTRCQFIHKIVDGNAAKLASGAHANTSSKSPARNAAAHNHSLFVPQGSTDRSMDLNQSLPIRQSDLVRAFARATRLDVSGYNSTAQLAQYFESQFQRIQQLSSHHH

[4] = molecular target: T2, Low molecular weight phosphotyrosine protein phosphatase; format: functional; settings: read-out: IC50_Mean; remark: listed apart in the source
Vero = test: cells; format: functional; settings: Chlorocebus sabaeus
[5] = molecular target: V-type proton ATPase subunit c' (Saccharomyces cerevisiae S288c, UniProt P32842); test: Dose Response of Small Molecules that Regulate V-ATPase Proton Transport in Yeast using pHLuorin, Cherry Pick 2.; format: functional; settings: read-out: EC50_MICROM
[6] = Luminescence Cell-Based Dose Confirmation HTS to Identify Inhibitors of Platelet Dense Granule Release. [Related pubchem assays: 1663 (Primary HTS), 1678 (Summary of Project)]; format: functional
[7] = molecular target: Nuclear receptor subfamily 5 group A member 2 (Homo sapiens, UniProt O00482); format: functional, cell-based;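 further: HEK293T cells transfected with LRH-1 and a StAR promoter luciferase reporter; potency for inhibitors that lower LRH-1 driven reporter light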
Steroidogenic factor 1 = Steroidogenic factor 1 (Homo sapiens, UniProt Q13285); test: Counterscreen for inverse agonists of the liver receptor homolog-1 (LRH-1; NR5A2): Luminescence-based cell-based high throughput dose response assay to identify inverse agonists of the Steroidogenic Factor 1 Nuclear Receptor (SF1; NR5A1).; format: functional
[8] = molecular target: Luciferin 4-monooxygenase (Photinus pyralis, UniProt P08659); test: firefly luciferase enzyme inhibitors, dose response, biochemical, luminescence (AID 1891)
[9] = StAR promoter reporter inhibition counter-screen, dose response, counter-screen for LRH-1 inverse agonist project, cell-based, luminescence, luciferase reporter (AID 651969); format: functional
[10] = control 3'UTR Renilla luciferase suppression, dose response, counter-screen for Shn3 inhibitor project, cell-based, Clone20-Shn3RL, cherry-picked (AID 624133); format: functional
Melanocortin receptor 4 [11] = molecular target: T4, Melanocortin receptor 4 (Homo sapiens, UniProt P32245); test: MC4R antagonist potency on cAMP, dose response, cell-based, TR-FRET, biased antagonists (AID 602298); format: functional;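 further: antagonist potency against agonist-stimulated cAMP production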
[12] = Fluorescence-based cell-based high throughput dose response assay for inhibitors of the interaction of nucleotide-binding oligomerization domain containing 2 (NOD2) and the receptor-interacting serine-threonine kinase 2 (RIPK2).; format: functional; settings: Homo sapiens
[13] = molecular target: T5, Replicative DNA helicase DnaB (Mycobacterium tuberculosis, UniProt P9WMR3); test: DnaB intein splicing inhibitors, dose response, biochemical, cell-free fluorescence (AID 449749); format: functional
T5 sequence (P9WMR3 whole entry): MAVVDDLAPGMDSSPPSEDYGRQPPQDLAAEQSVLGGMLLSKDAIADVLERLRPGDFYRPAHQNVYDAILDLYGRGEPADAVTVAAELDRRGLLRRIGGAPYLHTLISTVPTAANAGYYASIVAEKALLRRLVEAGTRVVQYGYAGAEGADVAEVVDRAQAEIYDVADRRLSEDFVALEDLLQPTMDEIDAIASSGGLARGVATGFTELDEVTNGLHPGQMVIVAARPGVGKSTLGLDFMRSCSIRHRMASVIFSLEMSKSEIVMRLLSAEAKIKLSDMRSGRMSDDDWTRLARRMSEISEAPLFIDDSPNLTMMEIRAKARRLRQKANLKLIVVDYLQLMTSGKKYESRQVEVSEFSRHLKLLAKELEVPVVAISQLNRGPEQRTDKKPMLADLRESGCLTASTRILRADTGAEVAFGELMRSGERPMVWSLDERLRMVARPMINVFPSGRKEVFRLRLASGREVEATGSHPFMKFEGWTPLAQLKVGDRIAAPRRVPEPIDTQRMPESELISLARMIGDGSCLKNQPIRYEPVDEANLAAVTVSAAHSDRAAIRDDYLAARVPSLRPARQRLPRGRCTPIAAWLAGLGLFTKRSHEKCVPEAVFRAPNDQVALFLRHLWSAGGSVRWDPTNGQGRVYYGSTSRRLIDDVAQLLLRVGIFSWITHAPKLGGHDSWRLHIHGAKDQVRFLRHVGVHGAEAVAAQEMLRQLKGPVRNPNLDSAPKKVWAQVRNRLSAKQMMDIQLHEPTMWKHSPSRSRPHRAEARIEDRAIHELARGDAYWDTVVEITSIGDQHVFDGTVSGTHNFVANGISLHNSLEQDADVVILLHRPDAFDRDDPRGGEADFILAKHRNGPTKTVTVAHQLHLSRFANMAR

Protein RecA = molecular target: T6, Protein RecA (Mycobacterium tuberculosis, UniProt P9WHJ3); test: Fluorescence Cell-Free Homogeneous Dose Retest to Identify Inhibitors of RecA-Intein Splicing Activity. [Related pubchem assays (depositor defined):AID2097, AID2223, AID489010, AID492950]; format: functional
T6 sequence (P9WHJ3 whole entry): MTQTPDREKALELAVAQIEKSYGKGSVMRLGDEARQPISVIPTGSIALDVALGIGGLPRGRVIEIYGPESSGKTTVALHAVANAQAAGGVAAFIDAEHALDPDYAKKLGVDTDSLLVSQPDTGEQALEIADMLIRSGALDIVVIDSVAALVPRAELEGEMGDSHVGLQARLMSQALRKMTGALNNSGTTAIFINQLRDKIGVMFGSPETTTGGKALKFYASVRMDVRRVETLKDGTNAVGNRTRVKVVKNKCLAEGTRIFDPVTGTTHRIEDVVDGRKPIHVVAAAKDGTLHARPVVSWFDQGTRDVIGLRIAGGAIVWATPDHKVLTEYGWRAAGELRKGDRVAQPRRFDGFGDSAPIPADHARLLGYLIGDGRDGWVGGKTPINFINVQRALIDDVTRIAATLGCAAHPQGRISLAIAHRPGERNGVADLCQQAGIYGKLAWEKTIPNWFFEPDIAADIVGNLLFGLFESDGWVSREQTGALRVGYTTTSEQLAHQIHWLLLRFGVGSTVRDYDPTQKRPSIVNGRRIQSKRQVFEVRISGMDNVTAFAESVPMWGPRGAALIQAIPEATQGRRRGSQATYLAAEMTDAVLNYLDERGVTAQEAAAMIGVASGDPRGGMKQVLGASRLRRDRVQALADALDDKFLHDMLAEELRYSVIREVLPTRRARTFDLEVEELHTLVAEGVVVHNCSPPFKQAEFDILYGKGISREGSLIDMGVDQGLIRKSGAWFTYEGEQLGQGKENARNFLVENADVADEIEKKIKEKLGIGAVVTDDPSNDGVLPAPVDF

[14] = nonselective inhibitors of cellular cAMP signaling, dose response, counter-screen for MC4R biased antagonist project, cell-based, TR-FRET cAMP detection (AID 602305); format: functional;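 further: U2OS cells stimulated with forskolin near its EC80 as the cAMP inducer; potency is for inhibition of forskolin-stimulated cAMP signaling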
[15] = HepG2 cell cytotoxicity, dose response, cytotoxicity control for Shn3 inhibitor project, CellTiter-Glo, cherry-picked (AID 624134); format: functional, cell-based
[16] = Shn3 3'UTR reporter inhibitors, dose response, cell-based, Clone20 osteoblasts, firefly luciferase, cherry-picked (AID 624132); format: functional;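 further: firefly luciferase luminescence from reporter carrying the Shn3 3'UTR in osteoblasts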
Beta Lactamase = Beta Lactamase (Pseudomonas aeruginosa, UniProt Q932Y6); test: beta-lactamase reporter inhibitor potency, dose response, artefact control for NOD2-RIPK2 interaction inhibitor project, BLA reporter cells, FRET fluorescence (AID 651552); format: functional, cell-based
Melanocortin receptor 4 [17] = molecular target: T4, Melanocortin receptor 4; format: functional, cell-based
[18] = HepG2 cell cytotoxicity, dose response, cytotoxicity control for non-replicating M. tuberculosis project (AID 489018); format: functional; settings: Mycobacterium tuberculosis
[19] = Luminescence Cell-Based Dose Response HTS to Identify Inhibitors of 5'UTR Stem-Loop Driven Prion Protein mRNA Translation in H4 Neuroglioblastoma Cells. [Related pubchem assays: 1827 (Project Summary), 1813 (Primary HTS)]; format: functional
cells = format: functional
[20] = inhibitors of SNCA 5'UTR-driven reporter translation, confirmation, H4 neuroglioma cells, luminescence (AID 1988); format: functional, cell-based
[21] = THP-1 cell cytotoxicity, dose response, cytotoxicity control for non-replicating M. tuberculosis project (AID 489025); format: functional
[22] = Vero E6 cell cytotoxicity, dose response, cytotoxicity control for non-replicating M. tuberculosis project, secondary assay (AID 492998); format: functional, VeroE6; settings: Vero C1008
[23] = inhibitors of firefly luciferase expression or activity, dose response, H4 neuroglioma cells, luminescence (AID 1990); format: functional, cell-based
[24] = molecular target: Tyrosine-protein phosphatase non-receptor type 11 (Homo sapiens, UniProt Q06124); test: SHP2 phosphatase inhibition, dose response, selectivity assay for STEP inhibitor project, biochemical (AID 602367); format: functional; settings: read-out: IC50_Mean
[25] = molecular target: Dual specificity protein phosphatase 3 (Homo sapiens, UniProt P51452); test: VHR phosphatase inhibition, dose response, selectivity assay for STEP inhibitor project, biochemical (AID 602374); format: functional; settings: read-out: IC50_Mean
[26] = molecular target: Tyrosine-protein phosphatase non-receptor type 5 (Homo sapiens, UniProt P54829); test: STEP phosphatase inhibitors, confirmation, biochemical, fluorescence intensity, uHTS hits (AID 602372); format: functional; settings: read-out: IC50_Mean
[27] = molecular target: Induced myeloid leukemia cell differentiation protein Mcl-1 (Homo sapiens, UniProt Q07820); format: functional
[28] = molecular target: Hepatocyte nuclear factor 4-alpha (Homo sapiens, UniProt P41235); format: functional, cell-based;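 further: biochemical luminescence-based dose-response counterscreen measuring inhibition of HNF4 dimerization, run alongside a screen for blockers of ABHD5–perilipin-5 interaction; split luciferase complementation of HNF4 fusion proteins in cell lysate measuring dimerization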
Chain of Hepatocyte nuclear factor 4-alpha (P41235 whole entry, the tested form may be a part): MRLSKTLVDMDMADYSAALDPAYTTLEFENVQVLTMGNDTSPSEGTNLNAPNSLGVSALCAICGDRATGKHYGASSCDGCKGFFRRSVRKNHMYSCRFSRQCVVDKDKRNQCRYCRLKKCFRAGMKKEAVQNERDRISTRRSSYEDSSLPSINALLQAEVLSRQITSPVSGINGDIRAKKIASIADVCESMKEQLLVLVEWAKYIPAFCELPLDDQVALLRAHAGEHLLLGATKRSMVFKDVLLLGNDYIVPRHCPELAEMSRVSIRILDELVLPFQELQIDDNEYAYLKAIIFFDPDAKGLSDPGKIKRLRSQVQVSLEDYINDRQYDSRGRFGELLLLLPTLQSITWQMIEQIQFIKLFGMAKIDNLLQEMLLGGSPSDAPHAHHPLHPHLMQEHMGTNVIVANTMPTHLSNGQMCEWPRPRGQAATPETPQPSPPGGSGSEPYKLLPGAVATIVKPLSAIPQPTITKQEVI

T2 sequence (P24666 whole entry, the tested form may be a part): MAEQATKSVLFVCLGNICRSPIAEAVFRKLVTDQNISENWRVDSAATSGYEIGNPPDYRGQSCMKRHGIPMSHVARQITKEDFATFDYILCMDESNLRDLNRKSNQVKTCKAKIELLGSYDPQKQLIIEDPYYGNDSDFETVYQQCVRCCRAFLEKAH
T4 sequence (P32245 whole entry, the tested form may be a part): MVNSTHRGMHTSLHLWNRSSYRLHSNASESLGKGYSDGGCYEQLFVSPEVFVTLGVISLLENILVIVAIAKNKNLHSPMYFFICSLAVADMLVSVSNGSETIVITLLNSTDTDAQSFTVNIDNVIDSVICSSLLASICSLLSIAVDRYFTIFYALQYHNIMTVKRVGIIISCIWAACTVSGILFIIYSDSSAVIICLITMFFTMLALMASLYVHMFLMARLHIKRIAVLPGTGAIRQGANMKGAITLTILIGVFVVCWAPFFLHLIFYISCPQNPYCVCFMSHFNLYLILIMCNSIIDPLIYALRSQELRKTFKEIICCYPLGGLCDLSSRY
Chain of Steroidogenic factor 1 (Q13285 whole entry): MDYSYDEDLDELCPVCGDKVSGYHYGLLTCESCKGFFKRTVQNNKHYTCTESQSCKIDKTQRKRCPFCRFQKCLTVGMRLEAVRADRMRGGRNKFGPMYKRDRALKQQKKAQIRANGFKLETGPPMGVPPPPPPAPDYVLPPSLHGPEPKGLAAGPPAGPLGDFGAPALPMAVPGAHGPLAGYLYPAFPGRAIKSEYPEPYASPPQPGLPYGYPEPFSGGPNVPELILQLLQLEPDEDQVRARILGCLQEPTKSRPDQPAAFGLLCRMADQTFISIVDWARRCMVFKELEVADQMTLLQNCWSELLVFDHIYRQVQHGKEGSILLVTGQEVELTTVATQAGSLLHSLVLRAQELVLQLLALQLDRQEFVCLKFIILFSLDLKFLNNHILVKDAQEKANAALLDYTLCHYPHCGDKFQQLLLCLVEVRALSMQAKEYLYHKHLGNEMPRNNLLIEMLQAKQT
Chain of Dual specificity protein phosphatase 3 (P51452 whole entry): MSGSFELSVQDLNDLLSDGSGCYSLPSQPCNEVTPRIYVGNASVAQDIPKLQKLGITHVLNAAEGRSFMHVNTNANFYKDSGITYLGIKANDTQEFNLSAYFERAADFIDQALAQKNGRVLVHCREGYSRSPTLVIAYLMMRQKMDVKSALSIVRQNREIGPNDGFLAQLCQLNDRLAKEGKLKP
Chain of Tyrosine-protein phosphatase non-receptor type 5 (P54829 whole entry): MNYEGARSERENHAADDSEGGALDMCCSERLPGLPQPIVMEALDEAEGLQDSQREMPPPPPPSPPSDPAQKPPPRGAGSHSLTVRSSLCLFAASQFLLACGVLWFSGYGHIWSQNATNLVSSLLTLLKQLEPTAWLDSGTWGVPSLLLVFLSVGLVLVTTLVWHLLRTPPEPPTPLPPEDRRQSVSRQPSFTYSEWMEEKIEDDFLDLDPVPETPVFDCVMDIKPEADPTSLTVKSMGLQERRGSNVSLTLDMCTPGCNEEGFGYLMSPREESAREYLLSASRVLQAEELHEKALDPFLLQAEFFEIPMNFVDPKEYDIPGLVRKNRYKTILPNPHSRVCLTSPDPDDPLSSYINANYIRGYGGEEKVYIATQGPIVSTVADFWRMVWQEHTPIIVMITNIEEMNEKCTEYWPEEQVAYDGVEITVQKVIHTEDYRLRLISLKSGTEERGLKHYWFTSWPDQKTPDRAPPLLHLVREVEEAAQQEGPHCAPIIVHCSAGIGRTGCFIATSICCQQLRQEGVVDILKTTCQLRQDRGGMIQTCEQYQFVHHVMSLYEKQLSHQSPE
Chain of Nuclear receptor subfamily 5 group A member 2 (O00482 whole entry): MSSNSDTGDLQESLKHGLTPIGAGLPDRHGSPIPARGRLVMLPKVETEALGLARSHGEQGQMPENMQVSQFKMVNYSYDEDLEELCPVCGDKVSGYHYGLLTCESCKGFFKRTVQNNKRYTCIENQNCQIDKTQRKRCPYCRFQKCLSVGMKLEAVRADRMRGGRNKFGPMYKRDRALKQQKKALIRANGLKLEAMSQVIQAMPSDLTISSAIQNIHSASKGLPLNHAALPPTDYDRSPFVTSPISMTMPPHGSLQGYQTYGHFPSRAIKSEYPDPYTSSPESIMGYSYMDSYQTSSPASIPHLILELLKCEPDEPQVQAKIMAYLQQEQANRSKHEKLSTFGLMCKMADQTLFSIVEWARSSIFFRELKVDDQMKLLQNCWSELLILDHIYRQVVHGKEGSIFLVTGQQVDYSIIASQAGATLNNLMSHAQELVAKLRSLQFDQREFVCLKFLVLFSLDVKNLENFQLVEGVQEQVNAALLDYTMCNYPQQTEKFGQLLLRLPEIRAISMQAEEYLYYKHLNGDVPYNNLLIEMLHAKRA
Chain of Tyrosine-protein phosphatase non-receptor type 11 (Q06124 whole entry): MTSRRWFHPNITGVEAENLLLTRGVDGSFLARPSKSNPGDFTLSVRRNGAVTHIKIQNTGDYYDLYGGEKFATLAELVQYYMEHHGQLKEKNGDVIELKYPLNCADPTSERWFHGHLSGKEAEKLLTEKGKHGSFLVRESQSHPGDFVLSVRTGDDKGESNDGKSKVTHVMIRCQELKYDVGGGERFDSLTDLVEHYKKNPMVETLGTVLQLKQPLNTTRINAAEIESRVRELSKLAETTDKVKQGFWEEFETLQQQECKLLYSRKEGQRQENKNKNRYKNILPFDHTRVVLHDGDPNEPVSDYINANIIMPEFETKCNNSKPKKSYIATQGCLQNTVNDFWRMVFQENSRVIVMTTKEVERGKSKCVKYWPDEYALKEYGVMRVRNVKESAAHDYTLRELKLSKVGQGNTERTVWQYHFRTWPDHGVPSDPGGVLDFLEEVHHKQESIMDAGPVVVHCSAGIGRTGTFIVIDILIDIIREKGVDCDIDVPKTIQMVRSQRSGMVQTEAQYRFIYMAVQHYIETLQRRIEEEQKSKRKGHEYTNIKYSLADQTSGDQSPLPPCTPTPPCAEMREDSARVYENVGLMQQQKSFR
Chain of Induced myeloid leukemia cell differentiation protein Mcl-1 (Q07820 whole entry, the tested form may be a part): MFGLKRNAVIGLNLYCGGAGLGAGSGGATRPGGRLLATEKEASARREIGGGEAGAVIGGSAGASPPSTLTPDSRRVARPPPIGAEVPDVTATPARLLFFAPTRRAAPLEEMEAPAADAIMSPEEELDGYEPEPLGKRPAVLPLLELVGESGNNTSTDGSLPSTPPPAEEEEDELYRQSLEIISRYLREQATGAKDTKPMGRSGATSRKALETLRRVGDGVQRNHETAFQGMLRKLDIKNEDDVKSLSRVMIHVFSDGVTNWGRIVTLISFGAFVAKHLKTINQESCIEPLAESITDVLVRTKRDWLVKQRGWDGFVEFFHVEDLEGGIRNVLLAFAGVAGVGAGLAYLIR
Chain of V-type proton ATPase subunit c' (P32842 whole entry): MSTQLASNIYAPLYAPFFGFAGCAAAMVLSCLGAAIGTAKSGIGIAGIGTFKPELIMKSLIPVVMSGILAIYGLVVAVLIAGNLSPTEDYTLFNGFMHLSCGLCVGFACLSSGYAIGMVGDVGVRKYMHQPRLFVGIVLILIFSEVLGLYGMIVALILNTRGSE
Chain of Beta Lactamase (Q932Y6 whole entry): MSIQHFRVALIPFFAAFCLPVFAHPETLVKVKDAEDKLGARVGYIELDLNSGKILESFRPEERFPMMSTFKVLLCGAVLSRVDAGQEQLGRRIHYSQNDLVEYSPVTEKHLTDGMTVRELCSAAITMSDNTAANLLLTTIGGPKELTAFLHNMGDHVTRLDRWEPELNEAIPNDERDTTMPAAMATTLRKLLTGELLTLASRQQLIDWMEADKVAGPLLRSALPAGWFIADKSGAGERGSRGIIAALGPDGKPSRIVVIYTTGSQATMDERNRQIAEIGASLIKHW
Chain of Luciferin 4-monooxygenase (P08659 whole entry): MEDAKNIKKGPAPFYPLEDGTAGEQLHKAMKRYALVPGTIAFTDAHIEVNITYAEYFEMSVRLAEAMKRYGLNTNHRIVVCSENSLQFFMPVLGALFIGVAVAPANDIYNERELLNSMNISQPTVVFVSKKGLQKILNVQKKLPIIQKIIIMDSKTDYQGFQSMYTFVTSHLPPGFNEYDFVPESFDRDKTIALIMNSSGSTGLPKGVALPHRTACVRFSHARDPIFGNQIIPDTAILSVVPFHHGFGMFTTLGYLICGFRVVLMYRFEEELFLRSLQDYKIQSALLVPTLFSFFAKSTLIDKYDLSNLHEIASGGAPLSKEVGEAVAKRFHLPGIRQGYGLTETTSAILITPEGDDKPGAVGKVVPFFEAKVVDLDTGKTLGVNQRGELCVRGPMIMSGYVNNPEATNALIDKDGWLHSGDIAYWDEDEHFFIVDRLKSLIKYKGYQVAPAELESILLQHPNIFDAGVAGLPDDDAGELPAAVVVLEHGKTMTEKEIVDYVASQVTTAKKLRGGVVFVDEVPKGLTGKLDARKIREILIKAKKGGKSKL

For N#CC1=C(N)OC2=C(C(=O)CC(c3ccco3)C2)C1c1ccc(OCc2c(F)cccc2Cl)cc1 (stereo not drawn), the EC50 [1] was > 300 µM (not active), the IC50 [2] was > 80 µM (inactive) and the EC50 [3] was > 300 µM (not active). The IC50 [4] was 35.1 µM (inactive).
In the case of CN1C(=O)/C(=C\c2ccc(Br)s2)C(=O)NC1=S, the CC50 (Vero) is reported as 22.9 µM (active) and the EC50 [5] is reported as 6.43 µM (active).
For CCC(=O)Nc1nnc(SCC(=O)NCCc2ccc(OC)c(OC)c2)s1, the EC50 [6] was > 112 µM (not active), the IC50 [7] was 12 µM (inactive) and the IC50 (Steroidogenic factor 1) was 2.05 µM (active). For the same compound, the EC50 [8] was > 112 µM (not active) and the IC50 [9] was 35.9 µM (inactive).
For Cc1cccc(CS(=O)(=O)c2ncc(Cl)c(C(=O)NCc3ccc4c(c3)OCO4)n2)c1, the AC50 [10] was 11.3 µM (active), the IC50 (Melanocortin receptor 4 [11]) was > 64.6 µM (inactive) and the IC50 [12] was 3.95 µM (active). The AC50 [13] was 3.39 µM (active), the EC50 (Protein RecA) was 3.52 µM (active) and the IC50 [14] was > 64.6 µM (inactive). For the same compound, the AC50 [15] was 41.3 µM (active), the AC50 [16] was 0.938 µM (active) and the IC50 (Beta Lactamase) was 21.1 µM (inactive).
With CN(C)CCCN(C(=O)CCc1ccccc1)c1nc2ccc(Cl)cc2s1 the EC50 (Melanocortin receptor 4 [17]) was > 89.2 µM (inactive), the CC50 [18] was 12.4 µM (active) and the EC50 [19] was > 120 µM (not active). For the same compound, the IC50 (cells) was 22.9 µM (active), the EC50 [20] was > 120 µM (not active) and the CC50 [21] was 16.6 µM (active). For the same compound, the CC50 [22] was 17.1 µM (active) and the EC50 [23] was > 60 µM (not active).
In the case of Cc1ccc(NC(=O)CCn2c(=S)oc3ccccc32)cc1F, the IC50 [24] is reported as 3.14 µM (active), the IC50 [25] is reported as 7.02 µM (active) and the IC50 [26] is reported as > 80 µM (inactive).
With Cc1cccc(NC(=O)CSc2nnc(-c3ccco3)c(-c3ccco3)n2)c1 the IC50 [27] was 5.78 µM (active) and the IC50 [28] was 1.42 µM (active).
